According to patent US8889840B2, “Vascular leakage inhibitor” (Industry-Academic Cooperation Foundation, Yonsei University, priority 2009, dated 2014):

Columns and labels:
[1] = system: human retinal endothelial cells (HRECs); assay: Serum depletion-induced apoptosis of HRECs, MTT assay and cell morphology; assay type: cell-based; details: for ability of inhibiting apoptosis (MTT assay): 48 hours after treatment; for ability of protecting retinal vascular endothelial cells from apoptosis induced by the removal of serum (MTT): serum-free medium, 0.1-10 μg/mL
Description: HRECs (3×10^4 cells/well) were seeded on a 24-well plate in M199 medium containing 20% fetal bovine serum. The next day, the cells were transferred to a medium containing […] Sac0601 (FIG. 4a) or 0.1-10 μg/mL Sac0504 (FIG. 4b). Cell viability was determined by MTT assay 48 hours later. FIGS. 5a-5c show the result of observing cell morphologies.
Human umbilical vein endothelial cells (HUVECs) and human retinal endothelial cells (HRECs) purchased from Cell Systems (USA) were seeded on a 100-mm culture dish in M199 medium (Life Technologies, USA) containing 20% (w/v) fetal bovine serum (FBS, HyClone, Canada), 100 units/mL penicillin (Invitrogen, USA), 100 μg/mL streptomycin (invitrogen, USA), 3 ng/mL basic fibroblast growth factor (bFGF, Upstate Biotechnology, USA) and 5 units/mL heparin and cultured in a 5% CO2 incubator at 37° C.
Also, HRECs were treated with the compounds synthesized in Synthesis Example 5 and MIT assay was performed 48 hours later in the same manner as described above.
Also, the acid compound wherein the methyl ester formed by the introduction of the ester group was hydrolyzed was synthesized to provide improved water solubility and activity. MYT assay was performed for the compounds synthesized in Synthesis Example 6 in the same manner as described above 48 hours after treatment.
Their ability of inhibiting apoptosis was confirmed again for HRECs. HRECs (3×10^4 cells/well) were seeded on a 24-well plate in M199 medium (1 mL) containing 20% fetal bovine serum, Next day, the cells were transferred to serum-free M199 medium containing 0.1-10 μg/ml. Sac060.1 (FIG. 4a) or 0.1-10 μg; mL Sac0504 (FIG. 4b). Cell viability was determined by MTF assay in the same manner as in Test Example 1.
Their ability of inhibiting apoptosis was confirmed again for HRECs.

[2] = system: HUVECs; assay: VEGF-induced actin stress fibers in HUVECs, rhodamine phalloidin staining; assay type: cell-based, human; details: 10 μg/mL pretreatment 1 hour, 20 ng/mL VEGF
Description: Confluent HUVECs were pretreated with the compounds (10 μg/mL) for 60 minutes before treating with 20 ng/mL VEGF (1 hr). The cells were then stained with rhodamine phalloidin.
It is known that the change in the actin structure of the cytoskeleton is closely related with the permeability of vascular endothelial cells. Increased permeability of vascular endothelial cells leads to increased formation of actin stress fibers and decrease of cortical actin ring structures. Based on this, the ability of inhibiting vascular endothelial permeability of the synthesized Rk1 derivatives was screened. Confluent HUVECs were pretreated with the synthesized compounds (10 μg/mL) for 1 hour before treating with 20 ng/mL VEGF (Upstate Biotechnology). Subsequently, the cells were fixed with 4% paraformaldehyde for 20 minutes at room temperature and washed 3 times with PBS (pH 7.4). Then, the cells were permeabilized with 0.1% Triton X-100/PBS and reacted with 0.1 mg/mL rhodamine phalloidin (Molecular Probes) for 1 hour. Then, the cells were observed under a fluorescence microscope (Olympus).

[3] = system: HRECs; assay: VEGF-induced actin stress fibers in HRECs, rhodamine phalloidin staining; assay type: cell-based, human; details: 10 μg/mL 1 hour, then 20 ng/mL VEGF 1 hour
Description: Confluent HRECs were treated with 10 μg/mL Sac0601 or Sac0504 for 1 hour and then with 20 ng/mL VEGF for 1 hour. Subsequently, the cells were fixed at room temperature for 20 minutes with 4% paraformaldehyde and washed 3 times with PBS (pH 7.4). Then, the cells were permeabilized with 0.1% Triton X-100/PBS and reacted with 0.1 mg/mL rhodamine phalloidin (Molecular Probes) for 1 hour. Then, the cells were observed under a fluorescence microscope (Olympus). […] The analysis of actin cytoskeleton was conducted also for the compounds synthesized in Synthesis Example 5. Both Sac0904 and Sac0902 exerted effects in a concentration-dependent manner on the actin cytoskeleton which is closely related with vascular permeability (FIG. 7c).

[4] = system: diabetic mouse (DM) model; assay: Retinal vascular permeability in diabetic mouse (DM) model, FITC-dextran; assay type: in vivo, C57/BL6 mouse; details: streptozotocin diabetic mouse, 10 μg into the vitreous body, 24 hours
Description: 10 μg of Sac0601 or 10 μg of Sac0504 was injected into the vitreous body of one eye of a diabetic mouse. 24 hours after the injection, 100 μL of FITC-dextran (30 mg/mL in filtered […]) was injected into the left ventricle. Then, the retina was observed under an optical microscope (FIG. 11a) and the fluorescence intensity was quantified (FIG. 11b).
For in vivo analysis of the effect of the synthesized Rk1 derivatives on increased vascular permeability in diabetic retinopathy, a diabetic mouse (DM) model was made by injecting streptozotocin to C57/BL6 mouse. Sac 0601 or Sac 0504 (10 μg) was injected into the vitreous body of the mouse. 24 hours later, 40-kDa FITC-dextran (30 mg/mL in PBS, Sigma) was injected into the left ventricle. After waiting for about 2 minutes for circulation of the tracer, the eyes were taken out and fixed immediately in 4% PFA. Then, the retina was taken out and observed under an optical microscope.

[5] = system: HRECs; assay: Stability of tight junctions (TJs) at cell-cell contacts in VEGF-treated HRECs, anti-occludin immunostaining; assay type: cell-based, human; details: 10 μg/mL 1 hour, then 20 ng/mL VEGF 1 hour
Description: In FIG. 8a, confluent HRECs were pretreated with Sac0601 (panel A in FIG. 8a) or Sac0504 (panel B in FIG. 8a) for 60 minutes before treating with 20 ng/ml. VEGF (1 hr). The cells were then stained with occludin antibody.
(§1) Confluent HRECs were treated with 10 μg/mL Sac0601 (FIG. 8a, panel A) or Sac0504 (FIG. 8a, panel B) for 1 hour and then with 20 ng/mL. VEGF for 1 hour. Subsequently, the cells were fixed at room temperature for 20 minutes with 4% paraformaldehyde and permeabilized with 0:1% Triton X-100/PBS. Then, the cells were incubated in PBS blocking solution containing 5% normal goat serum and 0.05% Tween-20. The cells were then reacted with anti-occludin antibody (Zymed Laboratories Inc.). The result was visualized with fluorescein-conjugated anti-mouse antibody (Vector Lab.). Also, western blotting was conducted for the cell lysate. The cell lysate was fractionated with SDS-PAGE and then transferred to polyvinyl difluoride membrane. The blocked membrane was reacted with anti-occludin antibody (Zymed Laboratories Inc.) and the immune response band was visualized with the chemiluminescence reagent obtained from Amersham Biosciences, Inc.

[6] = system: occludin; assay: Occludin western blotting of HREC lysate; assay type: cell-based, human; details: HRECs, pretreatment 60 minutes, then 20 ng/mL VEGF 1 hour
Description: In FIG. 8b, confluent HRECs were pretreated with Sac0601 (10 μg/mL) for 60 minutes before treating with 20 ng/mL VEGF (1 hr). Then, cell lysate was subjected to western blotting using anti-occludin antibody.
as §1

[7] = system: HRECs; assay: Permeability of HRECs on transwell filter, labelled sucrose; assay type: cell-based, human; details: 10 μg/mL 60 minutes, with or without 20 ng/mL VEGF
Description: HRECs were seeded on a transwell filter. After reaching confluency, the cells were pretreated with Sac0601 (FIG. 10a) and Sac0504 (FIG. 10b) for 60 minutes before treating with 20 ng/ml. VEGF (1 hr). The permeability of HRECs was determined by measuring radiation of […] (1 μCi/μL) diffused below the transwell using a liquid scintillation counter.
The effect of Sac0601 and Sac0504 on vascular permeability was analyzed. HRECs were seeded on a transwell filter (Corning Costar). After reaching confluency, the cells were cultured in M199 medium containing 1% FBS for 3 hours and treated with 10 μg/mL. Sac0601 (FIG. 10a) or Sac0504 (FIG. 10b) for 60 minutes, with or without pretreatment with 20 ng/mL VEGF for 60 minutes. Then, [^3H]sucrose (1 μCi [0.037 MBq.]/μL or 50 μL (0.8 μCi [0.0296 MBq])/mL, Amersham Pharmacia) were added. 30 minutes later, radiation diffused below the transwell was measured using a liquid scintillation counter (Wallac, PerkinElmer). Measurement was made at least four locations.

SMILES	ability of inhibiting apoptosis (MTT assay) [1]	ability of protecting retinal vascular endothelial cells from apoptosis induced by the removal of serum (MTT) [1]	cortical actin ring structure [2]	formation of actin stress fibers induced by VEGF [2]	formation of actin stress fibers induced by VEGF [3]	formation of cortical actin ring structures [3]	retinal vascular permeability induced in the DM [4]	ability of protecting the vascular endothelial cells ([1]; incl. observation of cell morphologies)	redistribution of TJs into the cytoplasm or destabilizing at the cell membrane induced by VEGF [5]	occludin (western blotting) [6]	permeability of the vascular endothelial cells [7]
CC(=O)OCC1OC(OC2CCC3(C)C(=CCC4C3CCC3(C)C4CCC3C(C)(O)CCCC(C)C)C2)C=CC1OC(C)=O (stereo not shown) [Sac0902]	better ability of inhibiting apoptosis than Sac0601	showed the ability of protecting the vascular endothelial cells from apoptosis induced by the removal of serum in a concentration-dependent manner	increased the cortical actin ring structure	inhibited the formation of actin stress fibers induced by VEGF	inhibited the formation of actin stress fibers	increased the formation of cortical actin ring structures	only limitedly	–	–	–	–
CC(=O)OCC1OC(OC2CCC3(C)C(=CCC4C3CCC3(C)C(C(C)=CCCC(C)C)CCC43)C2)C=CC1OC(C)=O (stereo not shown) [Sac0904]	better ability of inhibiting apoptosis than Sac0601	showed the ability of protecting the vascular endothelial cells from apoptosis induced by the removal of serum in a concentration-dependent manner	increased the cortical actin ring structure	inhibited the formation of actin stress fibers induced by VEGF	inhibited the formation of actin stress fibers	increased the formation of cortical actin ring structures	very effectively	–	–	–	–
COC(=O)CCC/C=C(\C)[C@H]1CCC2C3CC=C4C[C@@H](OC5C=C[C@H](OC(C)=O)[C@@H](COC(C)=O)O5)CC[C@]4(C)C3CC[C@@]21C (stereo partly shown) [Sac1004]	improved ability of inhibiting apoptosis over SAC-0904	showed the ability of protecting the vascular endothelial cells from apoptosis induced by the removal of serum in a concentration-dependent manner	increased the cortical actin ring structure	inhibited the formation of actin stress fibers induced by VEGF	inhibited the formation of actin stress fibers	increased the formation of cortical actin ring structures	very effectively	improved ability of protecting the vascular endothelial cells over SAC-0904	could be inhibited	restores the activity of occludin decreased by VEGF	inhibiting permeability of the vascular endothelial cells
